Measurements as given in patent publication US9113629B2, “4-amino-6-(4-substituted-phenyl)-picolinates and 6-amino-2-(4-substituted-phenyl)-pyrimidine-4-carboxylates and their use as herbicides” (DOW AGROSCIENCES LLC, priority 2013, dated 2015).
Like-named read-outs stand apart in the source and are kept apart here.

How the values were obtained:
[1] = tested on: Key Broadleaf Weed and Crop Species; assay: Post-emergent Test II herbicidal activity (Table 5); assay type: in vivo; conditions: post-emergence, 336 h, 14 days after application; for pest or weed control at 70 g/ha: application rate 70 g ai/ha; for pest or weed control at 140 g/ha: application rate 140 g ai/ha
How it was run: (§1)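 Percent injury, 0 (none) to 100 (complete kill), was judged visually 14 d after spraying young plants at the first or second true leaf stage with compound in an acetone/DMSO aqueous carrier at 187 L/ha. Plants were kept in a greenhouse at 23–29 °C by day.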

[2] = tested on: Key Grass and Sedge Weeds as well as Grass Crops; assay: Post-emergent Test II herbicidal activity (Table 6); assay type: in vivo; conditions: post-emergence, 336 h; for pest or weed control at 70 g/ha: 70 g ai/ha; for pest or weed control at 140 g/ha: 140 g ai/ha
How it was run: as §1

[3] = ABUTH: velvetleaf (Abutilon theophrasti), read-out: Visual Growth Reduction (%) 14 Days After Application, ABUTH
[4] = AMARE: redroot pigweed (Amaranthus retroflexus), read-out: Visual Growth Reduction (%) 14 Days After Application, AMARE
[5] = BRSNN: oilseed-rape, canola (Brassica napus), read-out: Visual Growth Reduction (%) 14 Days After Application, BRSNN
[6] = CHEAL: lambsquarters (Chenopodium album), read-out: Visual Growth Reduction (%) 14 Days After Application, CHEAL
[7] = EPHHL: wild poinsettia (Euphorbia heterophylla), read-out: Visual Growth Reduction (%) 14 Days After Application, EPHHL
[8] = HELAN: sunflower (Helianthus annuus), read-out: Visual Growth Reduction (%) 14 Days After Application, HELAN
[9] = VIOTR: wild pansy (Viola tricolor), read-out: Visual Growth Reduction (%) 14 Days After Application, VIOTR
[10] = CYPES: yellow nutsedge (Cyperus esculentus), read-out: Visual Growth Reduction (%) 14 Days After Application, CYPES
[11] = DIGSA: crabgrass (Digitaria sanguinalis), read-out: Visual Growth Reduction (%) 14 Days After Application, DIGSA
[12] = ECHCG: barnyardgrass (Echinochloa crus-galli), read-out: Visual Growth Reduction (%) 14 Days After Application, ECHCG
[13] = ORYSA: rice (Oryza sativa), crop, read-out: Visual Growth Reduction (%) 14 Days After Application, ORYSA
[14] = SETFA: giant foxtail (Setaria faberi), read-out: Visual Growth Reduction (%) 14 Days After Application, SETFA
[15] = SORVU: grain sorghum (Sorghum vulgare), read-out: Visual Growth Reduction (%) 14 Days After Application, SORVU
[16] = TRZSS (wheat, Triticum aestivum), crop, read-out: Visual Growth Reduction (%) 14 Days After Application, TRZSS
[17] = ZEAMX: maize, corn (Zea mays), crop, read-out: Visual Growth Reduction (%) 14 Days After Application, ZEAMX

Work on `COC(=O)c1nc(-c2ccccc2F)c(F)c(N)c1Cl` [Compound 206] yielded a pest or weed control at 70 g/ha [1, 3] of 95 to 100%, a pest or weed control at 140 g/ha [1, 3] of 95 to 100% and a pest or weed control at 70 g/ha [1, 4] of 95 to 100%. For the same compound, the pest or weed control at 140 g/ha [1, 4] was 95 to 100%, the pest or weed control at 70 g/ha [1, 5] was 75 to 84% and the pest or weed control at 140 g/ha [1, 5] was 85 to 94%. It also gave a pest or weed control at 70 g/ha [1, 6] of 85 to 94%, a pest or weed control at 140 g/ha [1, 6] of 85 to 94% and a pest or weed control at 70 g/ha [1, 7] of 95 to 100%. It also gave a pest or weed control at 140 g/ha [1, 7] of 95 to 100%, a pest or weed control at 70 g/ha [1, 8] of 60 to 74% and a pest or weed control at 140 g/ha [1, 8] of 85 to 94%. For the same compound, the pest or weed control at 70 g/ha [1, 9] was 45 to 59%, the pest or weed control at 140 g/ha [1, 9] was 60 to 74% and the pest or weed control at 70 g/ha [2, 10] was 0 to 29%. It also gave a pest or weed control at 140 g/ha [2, 10] of 0 to 29%, a pest or weed control at 70 g/ha [2, 11] of 0 to 29% and a pest or weed control at 140 g/ha [2, 11] of 0 to 29%. It also gave a pest or weed control at 70 g/ha [2, 12] of 0 to 29%, a pest or weed control at 140 g/ha [2, 12] of 0 to 29% and a pest or weed control at 70 g/ha [2, 13] of 0 to 29%. For the same compound, the pest or weed control at 140 g/ha [2, 13] was 0 to 29%, the pest or weed control at 70 g/ha [2, 14] was 0 to 29% and the pest or weed control at 140 g/ha [2, 14] was 0 to 29%. It also gave a pest or weed control at 70 g/ha [2, 15] of 0 to 29%, a pest or weed control at 140 g/ha [2, 15] of 0 to 29% and a pest or weed control at 70 g/ha [2, 16] of 0 to 29%. The pest or weed control at 140 g/ha [2, 16] was 0 to 29%, the pest or weed control at 70 g/ha [2, 17] was 0 to 29% and the pest or weed control at 140 g/ha [2, 17] was 0 to 29%.
